Assay results reported in the supplement of paper PMC10307832.

Experiments:
Test in all cases: relative viability (nuclei count vs DMSO), 5 days (fraction); higher = more cells survive
[1] = compound: C1=CC2=C(C=CC(=C2)C=C3C(=O)NC(=NCC4=CC=CS4)S3)N=C1 [RO-3306] + COc1cc2c(Oc3ccc(NC(=O)C4(C(=O)Nc5ccc(F)cc5)CC4)cc3F)ccnc2cc1OCCCN1CCOCC1 [Foretinib] (partner 0.25 µM)
Summary of the method: (§1)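 Dosing by pin tool came one day after lung cancer cell lines were seeded in 1536-well plates, using either one drug or a fixed anchor-drug dose plus five library-drug doses (not always all listed) in √10 steps. After 5 days, nuclei were counted on 4× images. Relative viability is treated-well nuclei count divided by vehicle-well nuclei count, and values are medians of duplicate plates.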

[2] = compound: C1=CC2=C(C=CC(=C2)C=C3C(=O)NC(=NCC4=CC=CS4)S3)N=C1 [RO-3306] + Cc1cc(Nc2cc(N3CCN(C)CC3)nc(Sc3ccc(NC(=O)C4CC4)cc3)n2)n[nH]1 [Tozasertib] (partner 0.1 µM)
Summary of the method: as §1

[3] = compound: C1=CC2=C(C=CC(=C2)C=C3C(=O)NC(=NCC4=CC=CS4)S3)N=C1 [RO-3306] + C[C@]1(O)C[C@@H](c2nc(-c3ccc4ccc(-c5ccccc5)nc4c3)c3c(N)nccn32)C1 [Linsitinib] (partner 1 µM)
Summary of the method: as §1

[4] = compound: O=S(=O)(c1ccccc1)N(CC(F)(F)F)c1ccc(C(O)(C(F)(F)F)C(F)(F)F)cc1 + Nc1ncn([C@H]2C[C@H](O)[C@@H](CO)O2)c(=O)n1 [Decitabine] (partner 2 µM)
Summary of the method: as §1

| Cell Line | relative viability ([1]; first compound 0.01 µM) | relative viability ([1]; first compound 0.03162 µM) | relative viability ([1]; first compound 0.1 µM) | relative viability ([1]; first compound 0.3162 µM) | relative viability ([1]; first compound 1 µM) | relative viability ([2]; first compound 0.01 µM) | relative viability ([2]; first compound 0.03162 µM) | relative viability ([2]; first compound 0.1 µM) | relative viability ([2]; first compound 0.3162 µM) | relative viability ([2]; first compound 1 µM) | relative viability ([3]; first compound 0.01 µM) | relative viability ([3]; first compound 0.03162 µM) | relative viability ([3]; first compound 0.1 µM) | relative viability ([3]; first compound 0.3162 µM) | relative viability ([3]; first compound 1 µM) | relative viability ([4]; first compound 0.8 µM) | relative viability ([4]; first compound 2.53 µM) | relative viability ([4]; first compound 8 µM) |
| --- | --- | --- | --- | --- | --- | --- | --- | --- | --- | --- | --- | --- | --- | --- | --- | --- | --- | --- |
| NCI-H23 | 0.972 | 0.728 | 0.833 | 1.08 | 0.978 | 0.279 | 0.304 | 0.394 | 0.124 | 0.301 | 0.774 | 0.443 | 0.633 | 0.514 | 0.569 | 0.292 | 0.28 | 0.352 |
| NCI-H1395 | 0.981 | 0.902 | 0.895 | 0.945 | 0.824 | 0.635 | 0.681 | 0.749 | 0.696 | 0.643 | 1.1 | 0.954 | 1.06 | 1.02 | 1.04 | 0.712 | 0.741 | 0.815 |
| LOU-NH91 | 0.879 | 0.94 | 0.951 | 0.87 | 0.976 | 0.667 | 0.63 | 0.669 | 0.638 | 0.561 | 0.982 | 0.899 | 0.982 | 0.864 | 0.899 | 0.846 | 0.823 | 0.894 |
| NCI-H647 | 1.29 | 1.12 | 1.12 | 1.27 | 1.24 | 0.333 | 0.0513 | 0.304 | 0.269 | 0.158 | 1.43 | 1.07 | 1.21 | 1.29 | 1.07 | 0.502 | 0.437 | 0.353 |
| NCI-H522 | – | – | – | – | – | 0.545 | 0.495 | 0.595 | 0.567 | 0.5 | – | – | – | – | – | 0.565 | 0.608 | 0.746 |
| ChaGo-K-1 | 0.849 | 0.783 | 0.868 | 0.816 | 0.702 | 0.209 | 0.234 | 0.209 | 0.216 | 0.234 | – | – | – | – | – | 0.746 | 0.497 | 0.49 |
| IA-LM | 1.48 | – | 0.956 | 1.12 | 1.3 | – | – | – | – | – | 0.559 | – | 0.56 | 0.571 | 0.809 | – | – | – |
| EBC-1 | 0.0936 | 0.118 | 0.101 | 0.121 | 0.0921 | – | – | – | – | – | 1.03 | 0.556 | 0.977 | 1.15 | 1.05 | – | – | – |
| NCI-H1623 | 0.908 | 0.749 | 0.761 | 0.823 | 0.739 | 0.45 | 0.409 | 0.442 | 0.446 | 0.391 | – | – | – | – | – | – | – | – |
| SW 900 | 0.965 | 1.12 | 0.68 | 0.806 | 0.644 | 0.659 | 0.474 | 0.444 | 0.438 | 0.329 | – | – | – | – | – | 0.417 | 0.427 | 0.429 |
| NCI-H1792 | – | – | – | – | – | – | – | – | – | – | 0.728 | – | 0.569 | 0.604 | 0.31 | 0.562 | 0.395 | 0.562 |
| Calu-6 | 0.948 | 0.957 | 0.973 | 0.942 | 0.82 | – | – | – | – | – | 1.1 | 0.695 | 0.978 | 0.997 | 1.15 | – | – | – |
| A549 | 1.1 | 0.891 | 1 | 0.883 | 0.818 | – | – | – | – | – | 0.762 | 0.305 | 0.622 | 0.69 | 0.623 | 0.411 | 0.292 | 0.201 |
| NCI-H2228 | 0.759 | 0.808 | 0.954 | 0.641 | 0.635 | 0.225 | 0.219 | 0.221 | 0.168 | 0.223 | 0.963 | 0.529 | 0.678 | 0.655 | 0.617 | – | – | – |
| NCI-H1563 | 0.847 | 1.03 | 0.881 | 0.956 | 0.939 | – | – | – | – | – | 1.08 | 1.14 | 1.3 | 1.18 | 1.16 | – | – | – |
| NCI-H1703 | 0.392 | – | 0.325 | 0.389 | 0.345 | – | – | – | – | – | 1.04 | 0.409 | 0.598 | 0.22 | 0.681 | – | – | – |
| CAL-12T | 1.18 | 1.06 | 1.16 | 1.07 | 1.23 | 0.364 | 0.245 | 0.303 | 0.371 | 0.261 | 0.889 | 0.607 | 0.889 | 0.824 | 0.874 | – | – | – |
| NCI-H1650 | 1.73 | 0.858 | 0.917 | 1.11 | 0.723 | 0.398 | 0.366 | 0.345 | 0.309 | 0.316 | – | – | – | – | – | 0.463 | 0.454 | 0.465 |
| NCI-H2342 | 1.13 | 0.889 | 1.08 | 1.05 | 0.885 | 0.54 | 0.537 | 0.492 | 0.47 | 0.506 | – | – | – | – | – | 0.82 | 0.837 | 0.738 |
| HCC-44 | – | – | – | – | – | 1.17 | 0.947 | 0.925 | 0.873 | 0.676 | 0.718 | 0.674 | 0.68 | 0.663 | 0.693 | 1.03 | 0.968 | 0.991 |
| NCI-H1648 | – | – | – | – | – | 0.406 | – | 0.558 | 0.362 | 0.478 | – | – | – | – | – | 0.462 | 0.546 | 0.595 |
